Results published in the supplement of paper PMC4954754.
± gives the uncertainty stated by the source.

Key:
Details in all cases: 18 h
[1] = system: HEK293T-Rex ERSE-FLuc; assay: maximal ERSE-FLuc activation from dose-response fit, relative to thapsigargin (% of thapsigargin); higher = stronger activation
Experimental: (§1)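 Dose-response of hit compounds in HEK293T-Rex cells stably expressing ERSE-FLuc or XBP1-RLuc reporters, 18 hr treatment, 1536-well; luminescence normalised to 500 nM thapsigargin (100%) and DMSO (0%), fitted to give EC50 (M) and maximal activation; '>' marks EC50 above the top tested dose (~17 µM).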

[2] = system: HEK293T-Rex XBP1-RLuc; assay: maximal XBP1-RLuc activation from dose-response fit, relative to thapsigargin (% of thapsigargin); higher = stronger activation
Experimental: as §1

[3] = system: HEK293T-Rex ERSE-FLuc; assay: EC50 for ERSE-FLuc reporter activation
Experimental: as §1

[4] = system: HEK293T-Rex XBP1-RLuc; assay: EC50 for XBP1-RLuc reporter activation
Experimental: as §1

Compound	maximal ERSE-FLuc activation [1]	maximal XBP1-RLuc activation [2]	EC50 for ERSE-FLuc reporter activation [3] [µM]	EC50 for XBP1-RLuc reporter activation [4] [µM]
CCOc1cc(/C=C2/NC(=O)N(c3cccc(Cl)c3)C2=O)ccc1O	47.5 ± 4.4	61.4 ± 9.7	> 16.9	11.9
OCCNc1nc(Nc2ccc(Cl)cc2)nc2ccccc12	155 ± 12	87.4 ± 1.1	6.19	9.68
COc1cccc(C(=O)Nc2sc3c(c2C#N)CC(C)CC3)c1 (configuration not stated)	23.5 ± 8	2.09 ± 1.1	> 16.6	> 16.6
COc1cc2ccccc2cc1C(=O)N/N=C/c1cccs1	21.5 ± 3.6	5.33 ± 6.5	> 16.9	> 16.9
O=C(N/N=C/c1cccc(Cl)c1Cl)c1ccccc1O	6.19 ± 0.61	2.04 ± 0.65	> 16.9	> 16.9
C=CCn1c(N2CCC(C(=O)NCCc3ccc(O)c(O)c3)CC2)nc2ccccc21	150 ± 16	97.8 ± 31	8.27	7.94
C=CCNC(=O)c1cc(-c2cccs2)on1	124 ± 2.7	12.8 ± 0.79	5.28	> 16.9
Oc1ccc(/C=N/Nc2cccc3cccnc23)c(O)c1	36.6 ± 4.9	53.6 ± 5.7	> 16.9	9.41
Cc1nn(-c2ccc(F)cc2)c2ncc(C(=O)NCc3ccco3)c(Cl)c12	63.1 ± 4.8	151 ± 6.8	15.3	12.6
Nc1ccc2nc(-c3cc(Cl)c(N)c(Cl)c3)[nH]c2c1	22.7 ± 10	13.1 ± 1.1	> 13	> 13
COc1ccccc1-c1cnnc(N/N=C/c2c[nH]c3ccccc23)n1	49.9 ± 8.2	29.8 ± 2.1	> 16.9	> 16.9
CC1(C)Cc2ccccc2/C(=C/C(=O)C(=O)N/N=C/c2ccc(O)c(O)c2)N1	39 ± 3.2	54.9 ± 3.4	> 16.9	6.13
OCCNc1nc(Nc2ccc(Cl)c(Cl)c2)nc2ccccc12	144 ± 47	73.7 ± 9	4.13	4.98
Nc1ccc(-c2nc3cc(N)c(Cl)cc3[nH]2)cc1	29.6 ± 7.5	17.6 ± 0.39	> 14.7	> 14.7
Cc1ccc(O)c(-c2cc(-c3cccs3)[nH]n2)c1	131 ± 8.8	27.5 ± 2.1	8.75	> 18.9
Cc1ccc2nc(NC(=O)c3cccc4ccccc34)sc2c1	38.8 ± 5.3	11.2 ± 1.2	> 15.1	> 15.1
CCCCNNC(=O)c1ccc(Br)cc1	95.4 ± 25	8.05 ± 3.5	4.91	> 17.4
O=C(N/N=C/c1cccc(O)c1O)c1ccccc1I	39.5 ± 4.5	17.8 ± 3.8	> 16.9	> 16.9
Cc1cc2nc(/C(C#N)=C/c3ccco3)[nH]c2cc1C	28 ± 8.7	2.69 ± 0.74	> 16.9	> 16.9
O=C(Nc1ccccc1O)c1ccc(NS(=O)(=O)c2cccc3cccnc23)cc1	85.2 ± 7.5	21.8 ± 6.3	10	> 16.9
O=C(Nc1ccc(O)cc1)c1c(O)c2c([nH]c1=O)CCCC2	22.3 ± 2.9	28.5 ± 3.6	> 16.1	> 16.1
O=[N+]([O-])c1ccc2nc(/C=C/c3ccccc3)[nH]c2c1	23.7 ± 12	3.13 ± 2.4	> 16.9	> 16.9

Compound	maximal ERSE-FLuc activation [1]	maximal XBP1-RLuc activation [2]	EC50 for ERSE-FLuc reporter activation [3] [µM]	EC50 for XBP1-RLuc reporter activation [4] [µM]
COc1ccc(/C=C/c2ccc3cccc(OC(C)=O)c3n2)cc1OC(C)=O	25.7 ± 5.6	15 ± 2.1	> 16.9	> 16.9
O=C(COC(=O)c1cc(O)c(O)c(O)c1)Nc1ccc(Br)cc1F	41.7 ± 3.5	26.4 ± 2.7	> 16.9	> 16.9
Cc1ccc(O)c(NC(=O)CSc2n[nH]c(C)c2[N+](=O)[O-])c1	98.8 ± 16	37.4 ± 7.3	5.79	> 16.9
O=[N+]([O-])c1ccc(/C=C/c2ccc(O)cc2)cc1	25.8 ± 4.6	53.3 ± 4.7	> 15.3	12.4
COc1ccc(/C=C(\C#N)c2nc3ccccc3n2C)cc1	32.1 ± 2	0.49 ± 1.4	> 16.9	> 16.9
CC(C)c1ccc(NC(=O)/C=C/c2ccco2)cc1	21.5 ± 4.6	7.59 ± 2.4	> 17.2	> 17.2
O=C(/C=C/c1ccccc1)Nc1ccc(Cl)cn1	22.1 ± 7	2.19 ± 0.65	> 18.6	> 18.6
CCOc1ccc(NC(=O)c2ccc3c(c2)OCO3)c([N+](=O)[O-])c1	14.7 ± 3	0.524 ± 1.2	> 18.6	> 18.6
O=C(c1ccccc1)c1c(O)ccc2c(C(=O)c3ccccc3)c(O)ccc12	32.5 ± 3.7	34.9 ± 1.1	> 12.5	> 12.5
N#C/C(=C(/O)c1cc(-c2ccccc2)nc2ccccc12)c1nc2ccccc2[nH]1	24.8 ± 8.7	17.9 ± 1.4	> 15.9	> 15.9
Cc1ccc(/C=C(\C#N)C(=O)Nc2cccc(Cl)c2)o1	14.7 ± 3.1	3.54 ± 1.9	> 16.9	> 16.9
Cc1cc(C)nc(/N=C(\N)Nc2ccc(OCc3ccccc3)cc2)n1	46.9 ± 15	94.2 ± 4.2	> 14.6	0.788
Fc1ccc(-c2nnc3ccc(N4CCN(c5ccccn5)CC4)nn23)cc1	5.1 ± 4.1	7.7 ± 2.6	> 16.9	> 16.9
COc1ccc(/C=C/c2nc3cc([N+](=O)[O-])ccc3s2)cc1O	39.5 ± 2.4	8.74 ± 5.7	> 18.5	> 18.5
O=C(N/N=C\c1ccccc1[N+](=O)[O-])c1[nH]nc2c1CCc1ccccc1-2	23 ± 4.3	5.31 ± 2.3	> 16.9	> 16.9
O=C(NCCCn1ccnc1)c1cc(-c2cccs2)on1	89.1 ± 3.8	12.1 ± 0.83	9.58	> 16.9
CN(c1ccccc1)S(=O)(=O)c1cccc(C(=O)NCCc2ccc(O)c(O)c2)c1	202 ± 34	125.1 ± 1	6.56	8.35
CCc1ccc(NC(=O)/C=C/c2ccco2)cc1	19.3 ± 2.3	4.4 ± 8.8	> 16.8	> 16.8
Cc1ccn2cc(-c3ccc(O)c(O)c3)nc2c1	25.3 ± 5.2	70.3 ± 12	> 20.3	11.9
N#C/C(=C/c1ccc(O)c(O)c1)c1nc2ccccc2s1	38.1 ± 2.2	27.5 ± 2.7	> 16.9	> 16.9
Cc1ccc(C(=O)Nc2ccccc2N)cc1	137 ± 15	42.2 ± 2.2	4.27	> 14.7
